Assay results: patent US12065445B2, “CDK2 inhibitors and methods of using the same” (Cedilla Therapeutics, Inc., priority 2021, dated 2024)

System: Kuramochi cells labeled with mApple-H2B
Test: IncuCyte Cell Proliferation Assay
Assay type: cell-based
Details: 72 h
Experimental: IncuCyte® assay was used to measure the effect of disclosed compounds on cell proliferation. Fluorescent microscopy images of cells were taken immediately after compound treatment and 72 hours later. Image analysis software was used to obtain cell counts as a function of compound concentration. Kuramochi cells labeled with mApple-H2B were seeded on 384-well assay-ready plates. Plates were placed in an IncuCyte® (Sartorius) and scanned at 0 and 72 hours. IncuCyte® software was used to count the number of fluorescent nuclei in each well. The fold change in cell count from 0 to 72 hours in wells treated with increasing compounds concentrations (10 pts, ½ log dilution, 20 μM top concentration) was normalized to DMSO control wells. The normalized cell counts were fit with dose response curves and a […] was calculated.

Row | Compound | IC50 [µM]
1 | C[C@@H](OCC12CCC(CC1)OC2)[C@H](NC(=O)[C@@H]1CN(C(=O)c2cncs2)CC12CN(C(=O)[C@H]1CC1(C)C)C2)C(=O)N1CCC2(CC1)CC2 [I-458] | 0.5 to 5
2 | C[C@@H](OCC12CCC(CC1)OC2)[C@H](NC(=O)[C@@H]1CN(C(=O)c2cnco2)CC12CN(C(=O)[C@H]1CC1(C)C)C2)C(C)(C)O [I-450] | > 20
3 | C[C@@H](OCC1CC(F)(F)C1)[C@@H](CO)NC(=O)[C@@H]1CN(C(=O)c2cncs2)CC12CN(C(=O)[C@H]1CC1(C)C)C2 [I-412] | > 20
4 | C[C@@H](OCC1CCCCC1)[C@H](NC(=O)[C@@H]1CN(C(=O)c2cnn(Cc3ccccc3)c2)CC12CN(C(=O)[C@H]1CC1(C)C)C2)C(=O)N1CCC(n2cccn2)CC1 [I-439] | ≤ 0.5
5 | CC1(C)C[C@@H]1C(=O)N1CC2(CN(C(=O)c3cncs3)C[C@H]2C(=O)NCc2cccc(C3CCCCC3)n2)C1 [I-414] | 0.5 to 5
6 | CNC(=O)[C@@H](NC(=O)C1(F)CN(C(=O)c2cnn(Cc3ccccc3)c2)CC12CN(C(=O)[C@H]1CC1(C)C)C2)[C@@H](C)OCC1CCCCC1 (some centres unmarked) [I-501] | 0.5 to 5
7 | CNC(=O)[C@@H](NC(=O)[C@@]1(C)CN(C(=O)c2cnn(Cc3ccccc3)c2)CC12CN(C(=O)[C@H]1CC1(C)C)C2)[C@@H](C)OCC1CCCCC1 [I-499B] | > 20
8 | [2H]C([2H])([2H])OC[C@H]1CCCN(C(=O)[C@@H](NC(=O)[C@@H]2CN(C(=O)c3cncs3)CC23CN(C(=O)C(C)(C)C2CC2)C3)[C@@H](C)OCC23CCC(CC2)OC3)C1 [I-459] | 5 to 20
9 | C[C@@H](OCC1CCCCC1)[C@H](NC(=O)[C@@H]1CN(C(=O)c2cnn(Cc3ccccc3)c2)CC12CN(C(=O)[C@H]1CC1(C)C)C2)C(=O)N1CCC(c2nnco2)CC1 [I-449] | ≤ 0.5
10 | C[C@@H](OCC1(C(F)(F)F)CC1)[C@H](NC(=O)[C@H]1CN(C(=O)c2cncs2)CC12CN(C(=O)[C@H]1CC1(C)C)C2)C(=O)N1CCC(F)(F)CC1 [I-291] | > 20
11 | CNC(=O)[C@@H](NC(=O)[C@H]1CN(C(=O)c2cnn(Cc3ccccc3)c2)CC12CN(C(=O)OC(C)(C)C)C2)[C@@H](C)OCc1ccccc1 [I-3B] | > 20
12 | CC1(C)C[C@@H]1C(=O)N1CC2(CN(C(=O)c3cncs3)C[C@H]2C(=O)NC(c2cccc(C3CCOCC3)n2)C2CCCO2)C1 (some centres unmarked) [I-497] | > 20
13 | C[C@@H](OCC1CCC(F)(F)CC1)[C@H](NC(=O)[C@@H]1CN(C(=O)c2cncs2)CC12CN(C(=O)[C@H]1CC1(C)C)C2)C(C)(C)O [I-313] | 0.5 to 5
14 | COC[C@H]1CCCN(C(=O)[C@@H](NC(=O)[C@@H]2CN(C(=O)c3cncs3)CC23CN(C(=O)[C@H]2CC2(C)C)C3)[C@@H](C)OCC2CCC3(CCC3)CC2)C1 [I-390] | ≤ 0.5
15 | C[C@@H](OCC1CCCCC1)[C@H](NC(=O)[C@@H]1CN(C(=O)c2cnn(Cc3ccccc3)c2)CC12CN(C(=O)[C@H]1CC1(C)C)C2)C(=O)N1CCC(c2cc[nH]n2)CC1 [I-443] | ≤ 0.5
16 | CNC(=O)[C@@H](NC(=O)[C@@H]1CN(C(=O)c2cncs2)CC12CN(Cc1ccco1)C2)[C@@H](C)OCC12CCC(CC1)OC2 [I-349] | > 20
17 | Cc1ccc(CNC(=O)[C@@H]2CN(C(=O)c3cnc(Cc4ccccc4)s3)CC23CN(C(=O)[C@H]2CC2(C)C)C3)nn1 [I-405] | > 20
18 | C[C@@H](OCC1CCOCC1)[C@@H](COC1CCC(F)(F)CC1)NC(=O)[C@@H]1CN(C(=O)c2cncs2)CC12CN(C(=O)C(C)(C)C1CC1)C2 [I-333, (S)-2-(2-cyclopropyl-2-methylpropanoyl)-N-((2R,3R)-1-((4,4-difluorocyclohexyl)oxy)-3-((tetrahydro-2H-pyran-4-yl)methoxy)butan-2-yl)-6-(thiazole-5-carbonyl)-2,6-diazaspiro[3.4]octane-8-carboxamide] | 5 to 20
19 | C[C@@H](OCC1CCOCC1)[C@H](NC(=O)[C@@H]1CN(C(=O)c2cncs2)CC12CN(C(=O)[C@H]1CC1(C)C)C2)C(=O)N1CCC[C@H](COC(F)(F)F)C1 [I-327] | 5 to 20
20 | COC[C@H]1CCCN(C(=O)[C@@H](NC(=O)[C@@H]2CN(C(=O)c3cncs3)CC23CN(C(=O)C(C)(C)C2CC2)C3)[C@@H](C)OCC2CCCCC2)C1 [I-389] | 0.5 to 5
